Assay results as given in patent US20210029998A1, “ACIDIC ANTIMICROBIAL COMPOSITION” (The Procter & Gamble Company, priority 2019, published 2021).
Counter-ions that a name gives are not always drawn.

Tested on: Staphylococcus aureus (S. aureus—ATCC #6538)
Assay: Minimum Biocidal Concentration (MBC) in suspension
Assay type: cell-based
Method: B) Antibacterial Efficacy (Minimum Biocidal Concentration in Suspension) The antimicrobial efficacy of the antimicrobial agent in the composition is determined by measuring its Minimum Biocidal Concentration (MBC). The MBC is defined as the lowest absolute concentration of the particular antimicrobial active which provides complete kill (zero bacterial growth). The MBC of the compositions herein is determined against the bacterium, Staphylococcus aureus (S. aureus—ATCC #6538), a gram positive bacterium, These microorganisms are representative of natural contaminants in many consumer and industrial applications. The bacteria inoculum is prepared by transferring several colonies from a Tryptone Soy Agar (TSA) plate to a saline solution (0.85% NaCl) comprising 5% of horse serum as additional soil load when indicated, the bacteria concentration in this saline solution is determined by measuring the % Transmittance at 425 nm and adjusted by either adding more bacteria or more saline solution until the % Transmittance at 425 nm is between 23-25% which corresponds to a bacteria concentration of 10^8 CFU/ml. The antimicrobial agent was added to the composition at a level of 1000 ppm, 500 ppm, or 200 ppm, or 100 ppm or 50 ppm. 200 μL of the antimicrobial hard surface cleaning composition was dosed into one well of row A of a 96 well microtiter plate. Each subsequent well (rows B to G) were dosed with 100 μL of the same hard surface cleaning composition, without the addition of the antimicrobial agent. 100 μL of the antimicrobial hard surface cleaning composition was transferred from row A to row B and mixed. 100 μL of the composition was then transferred from row B to row C and mixed, and the process repeated to row G. As such, the concentration of the antimicrobial agent underwent two-fold dilution in adjacent wells, while the concentration of the other actives in the hard surface cleaning composition remained constant across all the wells in the same column. 10 μL of the 10^8 CFU/ml bacteria suspension in saline was added to wells A to F of the microtiter plate with row G kept as a nil bacteria control. The final volume in each well was 110 μL, except for row G which comprised 100 μL of the hard surface cleaning composition and no bacteria suspension. Bacterial inoculation to each column was staggered by 30 seconds to allow for equal incubation times in all wells so that the contact time between the bacteria and the antimicrobial active for all samples was 6 mins. After this contact time, 10 μL of each test solution was transferred to 90 μL of neutraliser solution (Modified Letheen Broth+1.5% Polysorbate 80, supplied by BioMérieux) to stop the antimicrobial action of the antimicrobial active matching the stagger of the inoculation. 2 μL of this solution was plated onto a TSA plate matching the stagger of the inoculation so that all samples are exposed to the neutralizer for the same period of time. The plate is incubated at 32.5° C. for 48 h for S. aureus. MBC concentration is taken as the lowest concentration of the antimicrobial active at which no visible colony growth is observed on the TSA plate. The antibacterial efficacy of the bispyridinium alkane octenidine hydrochloride was compared to that of the quaternary ammonium compound n-alkyl dimethyl benzyl ammonium chloride/n-alkyl dimethyl ethylbenzyl ammonium chloride (BTC®2125-Stepan) in acidic compositions comprising 1% of the indicated surfactant. Compositions were acidified using either an inorganic acid (hydrochloric acid) or an organic acid (citric acid). The minimal biocidal concentration (MBC) in suspension of each antibacterial active against a gram positive bacterium (Staphylococcus aureus) was measured in the presence of 5% horse serum to mimic stressed soiled conditions. Contact time was 6 minutes except for the composition with 1% of dodecyldimethyl amine oxide that was 30 seconds.

Q: With `CCCCCCCCN=c1ccn(CCCCCCCCCCn2ccc(=NCCCCCCCC)cc2)cc1` [Octenidine, octenidine dihydrochloride] as the compound, how does the MBC (ATCC6538, 0.1 h, pH 3.83, acidic composition with 1% w/v D-glucopyranose oligomeric decyl octyl glucoside (Triton CG 50), citric acid, pH 3.83, 5% horse serum, contact time 6 minutes) read?
A: 62.5 µg/mL

Q: And the MBC (ATCC6538, 0.1 h, pH 3.83, acidic composition with 1% w/v cocoamidopropyl hydroxysultaine (Mackam SB 50), HCl, pH 3.83, 5% horse serum, contact time 6 minutes)?
A: 62.5 µg/mL

Q: And the MBC (ATCC6538, 0.1 h, pH 3.86, acidic composition with 1% w/v C9-C11 alcohol EO8 (Neodol 91-8), HCl, pH 3.86, 5% horse serum, contact time 6 minutes)?
A: 62.5 µg/mL

Q: What about the MBC (ATCC6538, 0.1 h, pH 3.86, acidic composition with 1% w/v C10 EO5 alcohol ethoxylate (Lutensol ON 50), HCl, pH 3.86, 5% horse serum, contact time 6 minutes) of the same compound?
A: < 31 µg/mL

Q: What about the MBC (ATCC6538, 0.1 h, pH 3.87, acidic composition with 1% w/v 2-ethylhexyl PO5EO6 alkylalkoxylate (Ecosurf EH6), HCl, pH 3.87, 5% horse serum, contact time 6 minutes) of the same compound?
A: < 31 µg/mL

Q: What about the MBC (ATCC6538, pH 3.88, acidic composition with 1% w/v dodecyl dimethyl amine oxide (Empigem OB), citric acid, pH 3.88, 5% horse serum, contact time 30 seconds) of the same compound?
A: 62.5 µg/mL
